# From US10953015B2, “Use of adenosine receptor signaling to regulate P-gp function” (CORNELL UNIVERSITY, priority 2016, dated 2021)
# “Also recorded” adds a separate entry of the source.
# Key:
# P-gp [1] = assay: P-gp expression in HEK293T kidney cell line (IFA MFI, western blot); type: cell-based, human; conditions: Lexiscan® 1, 0.5, 0.1 μM, 15 minutes
# Procedure: FIGS. 20A and 20B illustrate that Lexiscan® downregulates P-gp expression in the kidney cell line HEK293T while treatment with antagonist SCH58261 blocks Lexiscan®'s effects. […] HEK293T cells were grown to confluency on coverslips, and treated with varying concentrations of Lexiscan® (1, 0.5, and 0.1 μM) for 15 minutes. Cells were permeabilized and then stained with an antibody to P-gp (C219) and visualized under a fluorescent microscope. FIG. 20B is a graph of the MFI of P-gp in FIG. 20A. DMSO vs. Lexiscan® (“Lex”), *=P<0.05, Lexiscan® (“Lex”)+SCH58261 (“SCH”), ****P<0.0001.
# HEK293T transformed kidney cells were treated with varying concentration of Lexiscan® (1, 0.5, 0.1 μM). Cells were lysed with lysis buffer ([…]), containing protease inhibitor cocktail. Samples were loaded on 7% SDS PAGE at 100V for 1 hour and transferred to nitrocellulose paper. The intensity of bands were analyzed by densitometry and plotted as a graph. Statistics: two-tailed student's t test: *=P<0.5, ****=P<0.0001.
# Applicants investigated whether A2A AR agonists could modulate P-gp expression in the HEK293T human kidney cell line. HEK293T cells were grown to confluency on coverslips and treated with varying concentrations of Lexiscan, Lexiscan® plus the A2A antagonist (SCH58261), or vehicle control for 15 minutes. Cells were then permeabilized, stained with an antibody to P-gp, and visualized under a fluorescent microscope (FIG. 20A). The mean fluorescence intensity (MFI) of P-gp was quantified and graphed in FIG. 20B.
# HEK293T cells were treated with various concentrations of Lexiscan, lysed, loaded onto an SDS-PAGE gel, transferred to a nitrocellulose membrane, and used for western blot analysis.
# [2] = cited from earlier work
# P-gp [3] = assay: P-gp expression in Caco-2 human tumor cell line (IFA MFI, western blot); type: cell-based; conditions: 1 μM for 30 minutes (IFA), 1, 0.5, 0.1 μM (western blot)
# Procedure: FIG. 19A are fluorescence microscopy images of Caco-2 cells (originally isolated from a human primary colonic tumor) grown on coverslips and treated with Lexiscan® (1 μM) or A1193 (1 μM), or DMSO (vehicle) control for 30 minutes. Next, cells were fixed, permeabilized, and stained with an antibody to P-gp. After washing, cells were mounted with DAPI for nuclear staining. FIG. 19B is a graph of the MFI of P-gp. FIG. 19C is a graph of densitometric analysis of a western blot of Caco-2 cells treated with Lexiscan® in varying concentrations (1, 0.5, and 0.1 μM). Densitometric analysis was performed to quantify the amount of P-gp in western blot. Statistics: two tailed student's t test for FIG. 19B, *<0.5.
# Applicants also evaluated whether A2A AR agonists can modulate P-gp expression in a human tumor cell line, Caco-2 cells. Briefly, Caco-2 cells (originally isolated from a human tumor) were grown on coverslips and treated with Lexiscan®, A1193, or vehicle control for 30 minutes. Cells were then fixed, permeabilized, and stained with an antibody to P-gp. After washing, cells were mounted with DAPI for nuclear staining (FIG. 19A). The mean fluorescence intensity (MFI) of P-gp was quantified and graphed in FIG. 19B.
# P-gp [4] = assay: Epirubicin accumulation and P-gp staining in MCF7 cells (fluorescence microscopy); type: cell-based, human; conditions: 1 μM
# Procedure: MCF7 cells (human breast cancer cell line) were cultured in 24 well plates until they reached confluency. FIGS. 17A-17C are images of western blots of cells treated with vehicle control (i.e., DMSO) (“D”) or 1 μM of the broad spectrum AR agonist NECA (“N”) (FIG. 17A), 1 μM of the A2A AR agonist Lexiscan® (“L”) (FIG. 17B), or 1 μM of the A2B AR agonist BAY60 (“B”) (FIG. 17C), respectively for 24, 48, 72 hours. Cells were lysed with lysis buffer and expression levels of P-gp, MMP9, or VEGF analyzed by western blot. GAPDH was used as loading a control. FIG. 17D is a graph of experimental results showing that Lexiscan® down-regulates P-gp expression in MCF7 breast cancer cells. MCF7 breast cancer cells were treated with Lex (0.25 μM) concomitant with Rhodamine 123 (“Rho123”). […] Students T test, P<0.001. […] FIG. 17E is a fluorescence microscopy image showing MCF7 breast cancer cells grown on coverslips and treated with vehicle (DMSO, control), or A2 AR agonists, Lexiscan® (1 μM) or A1193 (1 μM) for 15 minutes in the presence of epirubicin. Cells were stained with an antibody to P-gp and mounted with DAPI. FIG. 17F is a graph of the fluorescent intensity quantified from FIG. 17E by measuring the mean fluorescent intensity (“MFI”) of epirubicin (pink) that is present in cell nuclei. ***=P<0.0001.
# To further assess the modulation of A2A AR agonists on P-gp expression in MCF7 cells, applicants evaluated the accumulation of the P-gp substrate epirubicin in MCF7 cells. MCF7 cells were treated with DMSO (control), 1 μM Lexiscan®, or 1 μM of the A2A AR agonist A1193. […] In this case, the down-regulation of P-gp expression is equivalent to down-regulation of its function (Kim et al., “A2A Adenosine Receptor Modulates Drug Efflux Transporter P-Glycoprotein at the Blood-Brain Barrier,” J Clin Invest. 126(5):1717-33 (2016), which is hereby incorporated by reference in its entirety).
# P-gp [5] = biological target: T1, P-gp (Mus musculus, UniProt P21447); assay: Epirubicin brain accumulation assay; type: in vivo; conditions: mice; 10 mg/kg epirubicin i.v. with 0.05 mg/kg Lexiscan® or 50 mg/kg PSC833 for 15 minutes
# T1 construct: down-modulation of P-gp expression and function in brain vascular endothelial cells in WT mice; from tissue; host or cells: brain of WT mice
# Procedure: FIG. 12A is a fluorescence microscopy image showing immunofluorescence images of brains from Lexiscan®-treated mice of WT brain at 15 and 30 minutes after Lexiscan® treatment. Frozen brain sections were stained with GLUT1 (red), or P-gp (green) and counterstained with DAPI (blue). FIG. 12B is a fluorescence microscopy image showing an enlarged image of FIG. 12A. FIG. 12C is a graph summarizing the experimental results of a brain epirubicin accumulation assay in the Lexiscan®- and vehicle-treated (control) mice. Briefly, 10 mg/kg of epirubicin was injected intravenously with or without 0.05 mg/kg of Lexiscan®. Mice were perfused with ice-cold PBS and sacrificed at different time points. The accumulation of epirubicin in the brain was measured using fluorometric excitation at 488 nm and emission at 590 nm. *P<0.05 (n=4, 2-tailed Student's t test). FIG. 12D are fluorescence microscopy images showing fluorescent microscopic analysis of epirubicin accumulation in the brains of mice treated with Lexiscan® or PSC833 (a functional P-gp inhibitor) compared with vehicle (control). 10 mg/kg of epirubicin was injected intravenously with or without 0.05 mg/kg of Lexiscan® or 50 mg/kg of PSC833 for 15 minutes. Mice were perfused with ice-cold PBS and sacrificed. Brain was sectioned for microscopic analysis for full-brain image, and focal zoomed image from cortex was laid as an inset. Epirubicin is in red, and nucleus was counterstained with DAPI (blue). FIG. 12E are graphs showing the quantified intensity of epirubicin from different regions of cortex (CTX), cerebellum (CRBL), and hippocampus (HPC) from brains of control, Lexiscan®-, or PSC833-injected animals and depicted as graphs. The scale bars indicate 100 μm in FIG. 12A; 50 μm in FIG. 12B, and 5 mm in FIG. 12D). ***P<0.001 (n=50, 2-tailed Student's t test).
# FIG. 14A is a western blot of P-gp and BCRP1 from mouse brain at 2 and 18 hours after NECA treatment. FIG. 14B are graphs showing the enumeration of the expression intensity of P-gp and BCRP1 from the western blots shown in FIG. 14A. The intensity of the bands from NECA treatment group was divided by that of DMSO control. […] For fluorescence microscopy, frozen brain sections were stained with GLUT1 (red) or P-gp (green) and counterstained with DAPI (blue). […] The accumulation of epirubicin in the brain was measured using fluorometry, with excitation at 488 nm and emission at 590 nm. *P<0.05 (n=4, 2-tailed Student's t test).
# For Lexiscan® study, 10 mg/kg of epirubicin was injected with or without Lexiscan® (0.05 mg/kg) at different time points, and mice were sacrificed. […] Samples were spun down at 17,000 g for 30 minutes, and the concentration for epirubicin was analyzed with fluorimetry with […].
# T1 sequence (P21447 whole entry): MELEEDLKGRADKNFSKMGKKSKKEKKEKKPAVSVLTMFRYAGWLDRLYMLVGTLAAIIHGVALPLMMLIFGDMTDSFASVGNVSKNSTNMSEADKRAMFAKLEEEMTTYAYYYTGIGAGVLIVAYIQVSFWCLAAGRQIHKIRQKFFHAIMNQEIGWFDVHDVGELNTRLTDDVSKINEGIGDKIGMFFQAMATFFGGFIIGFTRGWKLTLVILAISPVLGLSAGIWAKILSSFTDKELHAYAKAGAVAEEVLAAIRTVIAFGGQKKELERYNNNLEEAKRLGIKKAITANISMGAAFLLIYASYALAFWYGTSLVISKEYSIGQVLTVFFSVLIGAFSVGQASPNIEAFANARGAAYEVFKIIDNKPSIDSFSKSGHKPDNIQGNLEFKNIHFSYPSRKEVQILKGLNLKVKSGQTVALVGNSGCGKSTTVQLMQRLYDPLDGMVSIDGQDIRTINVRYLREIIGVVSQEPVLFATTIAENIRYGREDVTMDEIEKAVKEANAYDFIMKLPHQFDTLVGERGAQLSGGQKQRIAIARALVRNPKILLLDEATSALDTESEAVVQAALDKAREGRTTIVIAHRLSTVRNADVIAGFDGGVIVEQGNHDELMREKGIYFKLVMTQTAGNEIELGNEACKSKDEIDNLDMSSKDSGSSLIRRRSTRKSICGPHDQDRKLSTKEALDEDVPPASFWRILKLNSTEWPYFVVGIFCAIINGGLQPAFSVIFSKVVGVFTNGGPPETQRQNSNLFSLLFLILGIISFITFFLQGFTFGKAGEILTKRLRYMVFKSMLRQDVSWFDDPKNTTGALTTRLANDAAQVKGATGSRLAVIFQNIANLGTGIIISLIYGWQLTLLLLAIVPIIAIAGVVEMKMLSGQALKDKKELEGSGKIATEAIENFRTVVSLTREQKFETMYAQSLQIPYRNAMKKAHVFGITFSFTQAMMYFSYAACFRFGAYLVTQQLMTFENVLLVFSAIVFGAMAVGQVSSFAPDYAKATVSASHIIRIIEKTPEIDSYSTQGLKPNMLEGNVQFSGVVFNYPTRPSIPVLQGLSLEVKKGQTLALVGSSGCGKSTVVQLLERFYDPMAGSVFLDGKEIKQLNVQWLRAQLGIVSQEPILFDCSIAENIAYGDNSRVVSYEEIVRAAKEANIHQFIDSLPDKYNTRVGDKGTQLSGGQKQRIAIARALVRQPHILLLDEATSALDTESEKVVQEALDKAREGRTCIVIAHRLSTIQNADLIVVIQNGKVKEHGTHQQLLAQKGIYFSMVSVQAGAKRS
compound,measurement,setting,value
"Nc1nc2c(cnn2CCc2ccccc2)c2nc(-c3ccco3)nn12 [SCH58261, 2-(2-Furanyl)-7-(2-phenylethyl)-7H-pyrazolo[4,3-e][1,2,4]triazolo[1,5-c]pyrimidin-5-amine]",P-gp expression (MFI),P-gp [1],blocked the effects of Lexiscan®
"Nc1ncnc2c1ncn2[C@@H]1O[C@H](CO)[C@@H](O)[C@H]1O [adenosine, 9-β-D-Ribofuranosyl-9H-purin-6-amine]",half-life,[2],about 10 seconds
"CCNC(=O)[C@H]1O[C@@H](n2cnc3c(NCC(c4ccccc4)c4ccccc4)nc(C(=O)NCCNC(=O)NC4CCN(c5ccccn5)CC4)nc32)[C@H](O)[C@@H]1O [A1193, 6-(2,2-diphenylethylamino)-9-((2R,3R,4S,5S)-5-(ethylcarbamoyl)-3,4-dihydroxytetrahydrofuran-2-yl)-N-(2-(3-(1-(pyridin-2-yl)piperidin-4-yl)ureido)ethyl)-9H-purine-2-carboxamide]",P-gp expression,P-gp [3],downregulate P-gp expression
same,P-gp expression (antibody staining),P-gp [4]; 15 minutes,down-regulate P-gp expression
same,Epirubicin accumulation (MFI in cell nuclei),P-gp [4]; 15 minutes in the presence of epirubicin,retained significantly more epirubicin than those treated with control
C/C=C/C[C@@H](C)C(=O)[C@H]1C(=O)N[C@@H](C(C)C)C(=O)N(C)CC(=O)N(C)[C@@H](CC(C)C)C(=O)N[C@@H](C(C)C)C(=O)N(C)[C@@H](CC(C)C)C(=O)N[C@@H](C)C(=O)N[C@H](C)C(=O)N(C)[C@@H](CC(C)C)C(=O)N(C)[C@@H](CC(C)C)C(=O)N(C)[C@@H](C(C)C)C(=O)N1C [PSC833],"Epirubicin fluorescent intensity in brain sections (cortex, cerebellum, hippocampus)",P-gp [5],Significantly lower epirubicin intensity; also recorded: lower epirubicin intensity than even the control treatment group
